One test deals with T1, histamine H3 receptor (Homo sapiens, UniProt Q9Y5N1).
T1 construct: expressed in transfected cells; host or cells: CHO K1 cells with pSwitch/pGeneH3 (GeneSwitch, mifepristone-induced), clone 3H3; membrane preparation
As to the kind of experiment: Histamine H3 functional antagonist assay (GTPγS, membranes). The class given is biochemical. The settings on record: CHO K1 membranes, [35S]-GTPγS, histamine at EC80; read-out: average pKi (pKb) at H3 (converted). The method, boiled down:
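Membranes came from CHO K1 cells with mifepristone-inducible (10 nM, 18 h) human H3 receptor expression, clone 3H3. Test compounds in DMSO were combined with WGA polystyrene LeadSeeker SPA beads, membranes and GDP.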
For orientation: Binding of GTPγS marks nucleotide exchange on a G protein.

For test [1], the target named is T2, human H1 receptor (Homo sapiens, UniProt P35367).
T2 construct: expressed in transfected cells
T2 sequence (P35367 whole entry): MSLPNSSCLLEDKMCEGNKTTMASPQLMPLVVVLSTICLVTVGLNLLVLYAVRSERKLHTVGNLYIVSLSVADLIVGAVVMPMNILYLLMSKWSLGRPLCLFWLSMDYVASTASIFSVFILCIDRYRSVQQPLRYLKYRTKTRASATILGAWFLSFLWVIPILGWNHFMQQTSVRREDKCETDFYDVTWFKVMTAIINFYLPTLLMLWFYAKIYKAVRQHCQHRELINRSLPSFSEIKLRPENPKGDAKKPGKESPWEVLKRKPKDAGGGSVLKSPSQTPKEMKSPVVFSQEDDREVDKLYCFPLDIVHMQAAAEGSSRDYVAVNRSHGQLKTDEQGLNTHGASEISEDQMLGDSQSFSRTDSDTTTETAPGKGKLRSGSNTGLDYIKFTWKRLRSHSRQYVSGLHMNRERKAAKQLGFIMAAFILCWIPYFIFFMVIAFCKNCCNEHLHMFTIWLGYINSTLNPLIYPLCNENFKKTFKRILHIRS
As to the kind of experiment: Histamine H1 functional antagonist assay: determination of functional pKi values (FLIPR). The class given is cell-based. The settings on record: CHO cells expressing human H1 receptor, histamine at EC80, read-out: average pKi (pKb) at H1 (converted). The gist of the method:
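Functional affinities come from concentration-effect curves of inhibited histamine (EC80) calcium responses read by FLIPR. Compound sat 30 min at 37° C on Fluo-4-loaded CHO cells stably expressing human H1 receptor, in probenecid-containing Tyrodes buffer, pH 7.40.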

In test [2] the target is T2, human H1 receptor. Briefly: Histamine H1 functional antagonist assay: determination of antagonist pA2 (FLIPR). The class given is cell-based. To be noted: histamine H1 receptor expressing CHO cells, histamine concentration response curves. The method, then:
The human H1 receptor is cloned using known procedures described in the literature [Biochem. Biophys. Res. Commun., 201(2):894 (1994)]. Chinese hamster ovary (CHO) cells stably expressing the human H1 receptor are generated according to known procedures described in the literature [Br. J. Pharmacol., 117(6):1071 (1996)].
The histamine H1 receptor expressing CHO cells are seeded into non-coated black-walled clear bottom 96-well tissue culture plates as described above.
Following overnight culture, growth medium is removed from each well, washed with 200 μl PBS and is replaced with 50 μl loading dye (250 μM Brilliant Black, 1 μM Fluo-4 diluted in Tyrodes buffer+probenecid (145 mM NaCl, 2.5 mM KCl, 10 mM HEPES, 10 mM D-glucose, 1.2 mM MgCl2, 1.5 mM CaCl2, 2.5 mM probenecid, pH adjusted to 7.40 with NaOH 1.0 M)). Cells are incubated for 45 min at 37° C. The loading buffer is removed and the cells are washed as above, and 90 μl of Tyrodes buffer+probenecid is added to each well. 10 μl of test compound, diluted to the required concentration in Tyrodes buffer+probenecid (or 10 μl Tyrodes buffer+probenecid as a control) is added to each well and the plate is incubated for 30 min at 37° C., 5% CO2.
The plates are then placed into a FLIPR™ (Molecular Devices, UK) to monitor cell fluorescence (λex=488 nm, λEM=540 nm) in the manner described in Sullivan et al., (In: Lambert DG (ed.), Calcium Signaling Protocols, New Jersey: Humana Press, 1999, 125-136) before and after the addition of 50 μl histamine over a concentration range of 1 mM-0.1 nM. The resultant concentration response curves are analysed by non-linear regression using a standard four parameter logistic equation to determine the histamine EC50, the concentration of histamine required to produce a response of 50% of the maximum response to histamine. The antagonist pA2 is calculated using the following standard equation: pA2=[…] where DR=dose ratio, defined as EC50antagonist-treated/EC50control and [B]=concentration of antagonist.

Experimental findings from patent publication US20100222349A1, “QUINOLINE DERIVATIVES USED TO TREAT INFLAMMATORY AND ALLERGIC DISEASES” (Glaxo Group Limited, priority 2007, published 2010) are described below.

The Kb is the equilibrium dissociation constant of an antagonist, usually derived from a functional assay. Lower therefore signals higher antagonist affinity.

T1 sequence (Q9Y5N1 whole entry, species assumed): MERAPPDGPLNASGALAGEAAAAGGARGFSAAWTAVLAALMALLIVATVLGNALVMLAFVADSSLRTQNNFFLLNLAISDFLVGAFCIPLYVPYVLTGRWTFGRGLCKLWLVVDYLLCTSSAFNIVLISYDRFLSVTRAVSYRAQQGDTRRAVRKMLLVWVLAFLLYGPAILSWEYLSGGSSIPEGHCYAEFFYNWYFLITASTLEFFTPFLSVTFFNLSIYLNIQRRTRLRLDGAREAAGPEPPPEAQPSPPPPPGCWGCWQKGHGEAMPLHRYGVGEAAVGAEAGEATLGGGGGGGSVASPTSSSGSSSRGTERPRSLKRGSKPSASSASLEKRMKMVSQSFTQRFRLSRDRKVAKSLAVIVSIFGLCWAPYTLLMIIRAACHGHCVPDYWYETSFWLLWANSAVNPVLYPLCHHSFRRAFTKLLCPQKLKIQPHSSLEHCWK

As to `CCCCc1cc(O[C@H]2CCN(CCC(=O)N3CCCCC3)C2)c2ncccc2c1` [Example 38, 6-butyl-8-({(3S)-1-[3-oxo-3-(1-piperidinyl)propyl]-3-pyrrolidinyl}oxy)quinoline], the Ki at histamine H3 receptor was approximately 100 nM; at human H1 receptor [1], approximately 1000 nM. Further, at human H1 receptor [2], the Kb was less than 100 nM.
For the compound `CCCCc1cc(OC2CCN(CCCCNC(=O)C(C)C)CC2)c2ncccc2c1` [Example 66, N-(4-{4-[(6-butyl-8-quinolinyl)oxy]-1-piperidinyl}butyl)-2-methylpropanamide], the Ki was more than 316 nM at histamine H3 receptor and less than 100 nM at human H1 receptor [1].
For `CCCCc1cc(OC2CCN(CCC(=O)NCCCOC)CC2)c2ncccc2c1` [Example 16, 3-{4-[(6-butyl-8-quinolinyl)oxy]-1-piperidinyl}-N-[3-(methyloxy)propyl] propanamide], the Ki was more than 3160 nM on histamine H3 receptor and less than 10 nM at human H1 receptor [1].
For the compound `CCCCc1cc(O[C@@H]2CCN(CCC(=O)N3CCCCC3)C2)c2ncccc2c1` [Example 33, 6-butyl-8-({(3R)-1-[3-oxo-3-(1-piperidinyl)propyl]-3-pyrrolidinyl}oxy)quinoline], the Ki on histamine H3 receptor was more than 316 nM; at human H1 receptor [1] it was less than 10 nM.
Take `CCCCc1cc(O[C@@H]2CCN(CCCC(=O)N3CCCCC3)C2)c2ncccc2c1` [Example 34, 6-butyl-8-({(3R)-1-[4-oxo-4-(1-piperidinyl)butyl]-3-pyrrolidinyl}oxy)quinoline]: the Ki on histamine H3 receptor was more than 316 nM; at human H1 receptor [1], less than 10 nM.
In the case of `CCCCCc1cc(OC2CCN(CCCNC(=O)C(C)(C)C)CC2)c2ncccc2c1` [Example 91, 2,2-Dimethyl-N-(3-{4-[(6-pentyl-8-quinolinyl)oxy]-1-piperidinyl}propyl) propanamide], the Ki on histamine H3 receptor is more than 316 nM; at human H1 receptor [1], less than 10 nM.
In the case of `CCCCc1cc(OC2CCN(CC(=O)N3CCCCC3)CC2)c2ncccc2c1` [Example 13, 6-butyl-8-({1-[2-oxo-2-(1-piperidinyl)ethyl]-4-piperidinyl}oxy) quinoline], the Ki is more than 3160 nM at histamine H3 receptor and less than 100 nM on human H1 receptor [1].
The matching figures for `CCCCc1cc(OC2CCN(CCCC(=O)N3CCCCC3)CC2)c2ncccc2c1` [Example 24, 6-butyl-8-({1-[4-oxo-4-(1-piperidinyl)butyl]-4-piperidinyl}oxy)quinoline]: more than 3160 nM and less than 100 nM.
Regarding `CCCCCCc1cc(OC2CCN(C[C@H]3CC[C@H](C(=O)NCCC)CC3)CC2)c2ncccc2c1` [Example 55, trans-4-({4-[(6-hexyl-8-quinolinyl)oxy]-1-piperidinyl}methyl)-N-propylcyclohexane carboxamide], the Ki at histamine H3 receptor was more than 316 nM; at human H1 receptor [1], less than 100 nM.
As for `CCCCCCc1cc(OC2CCN(C[C@H]3CC[C@H](C(=O)NCCCOC)CC3)CC2)c2ncccc2c1` [Example 58, trans-4-({4-[(6-hexyl-8-quinolinyl)oxy]-1-piperidinyl}methyl)-N-[3-(methyloxy)propyl]cyclohexane carboxamide], the Ki on histamine H3 receptor is more than 316 nM; on human H1 receptor [1] it was less than 100 nM.
As for `CCCCCCc1cc(OC2CCN(C[C@H]3CC[C@H](C(=O)NCc4ccc(C)cc4)CC3)CC2)c2ncccc2c1` [Example 49, trans-4-({4-[(6-hexyl-8-quinolinyl)oxy]-1-piperidinyl}methyl)-N-[(4-methylphenyl)methyl]cyclohexane carboxamide], the Ki at histamine H3 receptor is more than 316 nM; at human H1 receptor [1], less than 100 nM.
Taken in the same sequence, the figures for `CCCCc1cc(OC2CCN(C[C@H]3CC[C@H](C(=O)NC(C)C)CC3)CC2)c2ncccc2c1` [Example 42, Trans-4-({4-[(6-butyl-8-quinolinyl)oxy]-1-piperidinyl}methyl)-N-(1-methylethyl)cyclohexanecarboxamide] were more than 316 nM and less than 100 nM.
`CCCCc1cc(OC2CCN(C[C@H]3CC[C@H](C(=O)NCc4ccc(C)cc4)CC3)CC2)c2ncccc2c1` [Example 60, trans-4-({4-[(6-butyl-8-quinolinyl)oxy]-1-piperidinyl}methyl)-N-[(4-methylphenyl)methyl]cyclohexane carboxamide]: the Ki is more than 316 nM on histamine H3 receptor and less than 100 nM on human H1 receptor [1].
For `CCCCc1cc(OC2CCN(C[C@H]3CC[C@H](C(=O)NCCC(C)C)CC3)CC2)c2ncccc2c1` [Example 61, trans-4-({4-[(6-butyl-8-quinolinyl)oxy]-1-piperidinyl}methyl)-N-(3-methylbutyl) cyclohexane carboxamide], the Ki on histamine H3 receptor is more than 316 nM; at human H1 receptor [1] it was less than 10 nM.
Turning to `CCCCc1cc(OC2CCN(CCC(=O)NC(C)C)CC2)c2ncccc2c1` [Example 19, 3-{4-[(6-butyl-8-quinolinyl)oxy]-1-piperidinyl}-N-(1-methylethyl) propanamide], the Ki is more than 3160 nM at histamine H3 receptor and less than 10 nM on human H1 receptor [1].
Regarding `CCCCCCc1cc(OC2CCN(C[C@H]3CC[C@H](C(=O)NC(C)C)CC3)CC2)c2ncccc2c1` [Example 56, trans-4-({4-[(6-hexyl-8-quinolinyl)oxy]-1-piperidinyl}methyl)-N-(1-methylethyl) cyclohexane carboxamide], the Ki was more than 316 nM at histamine H3 receptor and less than 10 nM on human H1 receptor [1].
Take `CCCCc1cc(OC2CCN(CCCNC(=O)CCOC)CC2)c2ncccc2c1` [Example 82, N-(3-{4-[(6-butyl-8-quinolinyl)oxy]-1-piperidinyl}propyl)-3-(methyloxy) propanamide]: the results for the Ki at histamine H3 receptor and at human H1 receptor [1] were more than 316 nM and less than 10 nM, respectively.
Taken in the same sequence, the figures for `CCCCc1cc(OC2CCN(CCNC(=O)CCOC)CC2)c2ncccc2c1` [Example 80, N-(2-{4-[(6-butyl-8-quinolinyl)oxy]-1-piperidinyl}ethyl)-3-(methyloxy) propanamide] were more than 316 nM and less than 10 nM.
For the compound `CCCCc1cc(OC2CCN(CCC(=O)N3CCCCC3)CC2)c2ncccc2c1` [Example 18, 6-butyl-8-({1-[3-oxo-3-(1-piperidinyl)propyl]-4-piperidinyl}oxy) quinoline], the Ki is more than 316 nM at histamine H3 receptor and less than 10 nM on human H1 receptor [1].
Taken in the same sequence, the figures for `CCCCc1cc(OC2CCN(CCCCNC(=O)CCOC)CC2)c2ncccc2c1` [Example 85, N-(4-{4-[(6-butyl-8-quinolinyl)oxy]-1-piperidinyl}butyl)-3-(methyloxy) propanamide] were more than 316 nM and less than 10 nM.
The matching figures for `CCCCc1cc(OC2CCN(CCCc3nc(CCC)no3)CC2)c2ncccc2c1` [Example 87, 6-Butyl-8-({1-[3-(3-propyl-1,2,4-oxadiazol-5-yl)propyl]-4-piperidinyl}oxy)quinoline]: more than 316 nM and less than 10 nM.
In the case of `CCCCc1cc(OC2CCN(CCC(=O)NCC)CC2)c2ncccc2c1` [Example 15, 3-{4-[(6-butyl-8-quinolinyl)oxy]-1-piperidinyl}-N-ethylpropanamide], the Ki at histamine H3 receptor was more than 3160 nM; on human H1 receptor [1], less than 100 nM.
Taken in the same sequence, the figures for `CCCCCc1cc(OC2CCN(CCCC(=O)NC(C)(C)C)CC2)c2ncccc2c1` [Example 88, N-(1,1-dimethylethyl)-4-{4-[(6-pentyl-8-quinolinyl)oxy]-1-piperidinyl}butanamide] were more than 316 nM and less than 10 nM.
Turning to `CCCCc1cc(OC2CCN(CCNC(=O)CCC)CC2)c2ncccc2c1` [Example 74, N-(2-{4-[(6-butyl-8-quinolinyl)oxy]-1-piperidinyl}ethyl) butanamide], the Ki is more than 316 nM at histamine H3 receptor and less than 10 nM at human H1 receptor [1].
Consider `CCCCc1cc(O[C@H]2CCN(CCCC(=O)N3CCCCC3)C2)c2ncccc2c1` [Example 39, 6-butyl-8-({(3S)-1-[4-oxo-4-(1-piperidinyl)butyl]-3-pyrrolidinyl}oxy)quinoline], for which the Ki is more than 316 nM at histamine H3 receptor and less than 10 nM on human H1 receptor [1].
The matching figures for `CCCCc1cc(OC2CCN(CCNC(=O)C(C)C)CC2)c2ncccc2c1` [Example 71, N-(2-{4-[(6-butyl-8-quinolinyl)oxy]-1-piperidinyl}ethyl)-2-methylpropanamide]: more than 316 nM and less than 10 nM.
